Test [1] deals with MT4. The experiment in a line: Compound was evaluated for the antiviral activity in HIV-I IIIB infected MT-4 cells assay. The format is functional, cell-based. The note with it: Homo sapiens.
Test [2] can be described thus: Ratio of compound cytotoxic concentration (CC50) to that of antiviral activity (EC50). Format: functional.
The target of test [3] is Human immunodeficiency virus type 1 protease (Human immunodeficiency virus 1, UniProt Q72874). The experiment in a line: Compound was evaluated for the inhibitory activity towards HIV protease.
In test [4] the test system is MT4. The experiment in a line: Cytotoxic concentration was measured in HIV-I IIIB infected MT-4 cells assay. Particulars: Homo sapiens. The format is functional.

In the test on MT4 [1], `CCCC1(CCc2ccccc2)OC(=O)C(C(CC)c2cccc(NS(=O)(=O)c3ccc(C#N)cn3)c2)=C(O)O1` (stereo not given) returned an EC50 of 11.4 µM. The SI in test [2] turned out to be 6.77. This compound also displayed an IC50 in test [3] of 0.003 µM. The CC50 with MT4 [4] turned out to be 77 µM.
In turn, `CCCC1(CCc2ccccc2)OC(=O)C(C(CC)c2cccc(NS(=O)(=O)c3ccc([N+](=O)[O-])cn3)c2)=C(O)O1` (stereo not given) returned an EC50 with MT4 [1] above 14.8 µM. Also, in test [2], the SI is given as below 1. Inhibition in test [3] was half-maximal at 0.065 µM (IC50). Besides, it took 14.8 µM to reach half-maximal cytotoxicity with MT4 [4] (CC50).
The compound `CCCC1(CCc2ccccc2)OC(=O)C(C(CC)c2cccc(NS(=O)(=O)c3ccc(C(F)(F)F)cn3)c2)=C(O)O1` (stereo not given) displayed an EC50 in the test with MT4 [1] of 0.96 µM. Further, the SI in test [2] stood at 65.69. This compound had an IC50 in test [3] of 0.01 µM. Moreover, the CC50 in the test on MT4 [4] turned out to be 63 µM.
The compound `CCC[C@]1(CCc2ccccc2)OC(=O)C([C@H](CC)c2cccc(NS(=O)(=O)c3ccc(C(F)(F)F)cn3)c2)=C(O)O1` (racemic) displayed an IC50 in test [3] of 0.05 µM.
Compound `CCCC1(CCc2ccccc2)OC(=O)C(C(CC)c2cccc(NS(=O)(=O)c3ccc(C#N)cc3)c2)=C(O)O1` (stereo not given) came in with an EC50 in the test on MT4 [1] above 66.5 µM. Further, the SI in test [2] is below 1. For the same compound, in test [3], the 50% inhibitory concentration (IC50) was determined as 0.015 µM. Besides, the CC50 with MT4 [4] was found to be 66.5 µM.
Compound `CCCC1(CCc2ccccc2)OC(=O)C(C(CC)c2cccc(NS(=O)(=O)c3ccccn3)c2)=C(O)O1` (stereo not given) gave an EC50 in the test on MT4 [1] of 86.7 µM. Also, the SI in test [2] was above 2.05. This compound came in with an IC50 in test [3] of 0.013 µM. Further, the cytotoxic concentration (CC50) in the test on MT4 [4] was above 178 µM.
Take `CCCC1(CCc2ccccc2)OC(=O)C(C(CC)c2cccc(NS(=O)(=O)c3ccc(N)cn3)c2)=C(O)O1` (stereo not given): the EC50 in the test with MT4 [1] was above 70 µM. Moreover, the SI in test [2] was below 1. In test [3], the IC50 turned out to be 0.013 µM. This compound also yielded a CC50 in the test on MT4 [4] of 70 µM.
